Experimental data reported in patent US20170216421A1, “MANUFACTURING OF MULTI-DOSE INJECTION READY DENDRITIC CELL VACCINES, COMBINATION THERAPIES FOR BLOCKING HER2 AND HER3, AND ESTROGEN RECEPTOR POSITIVE HER2 BREAST RECEPTOR POSITIVE HER2 BREAST CANCER THERAPY” (THE TRUSTEES OF THE UNIVERSITY OF PENNSYLVANIA, priority 2015, published 2017).

Legend:
[1] = system: MCF7 (HER2^neg 2+/ER^pos); experiment: Alamar Blue metabolic activity assay; format: cell-based, human; conditions: 72 hours
Experimental: (§1) Breast cancer cell lines, SKBR3 (HER2^pos/ER^neg) and MCF7 (HER2^neg 2+/ER^pos), were treated with Th1 cytokines (IFNγ and TNFα), a tamoxifen metabolite (4-hydroxytamoxifen, “4HT”), or both for 72 hours. Metabolic activity was measured via Alamar Blue assay.

SKBR3 (HER2^pos/ER^neg) = experiment: Alamar Blue metabolic activity assay; format: cell-based, human; conditions: 72 hours
Experimental: as §1

[2] = system: BRAF^V600EPTEN^−/− melanoma; experiment: Transplantable melanoma model: tumor growth and survival; format: in vivo, mice; conditions: administered alone
Experimental: A transplantable BRAF^V600EPTEN^−/− melanoma model was developed in the C57Bl/6 background. DC1 were generated from bone marrow precursors using Flt3, IL-6, GM-CSF, IL-4, CpG and LPS, and pulsed with class I BRAF^V600E peptide. In addition to untreated and ovalbumin-DC1 controls, BRAF^V600E-DC1 (2× weekly injections) and PLX were administered alone or in designated combinations to tumor-bearing mice (n=10 each). Tumor growth and survival were determined.

4-hydroxytamoxifen [4HT]
anti-tumor activity / metabolic activity [1]: did not increase anti-tumor activity
anti-tumor activity / metabolic activity (SKBR3 (HER2^pos/ER^neg)): not in response to anti-estrogen treatment

CCCS(=O)(=O)Nc1ccc(F)c(C(=O)c2c[nH]c3ncc(-c4ccc(Cl)cc4)cc23)c1F [PLX, vemurafenib]
median survival [2]: 43.5 days
